Species on record: Rattus norvegicus
Test: DrugMatrix - Regimen: Daily Repeat
Assay type: toxicity, organism-based, Sprague-Dawley
Set-up: regimen Daily Repeat, gender Male, age 6-8 weeks
Details: in vivo, po, route oral GAVAGE, vehicle 100 % WATER; for ABSOLUTE BASOPHIL / ABSOLUTE EOSINOPHIL / ABSOLUTE LYMPHOCYTE / ABSOLUTE MONOCYTE / ABSOLUTE SEGMENTED NEUTROPHIL / BASOPHIL / EOSINOPHIL / ERYTHROCYTE COUNT / HEMATOCRIT / HEMOGLOBIN / LEUKOCYTE COUNT / LYMPHOCYTE / MEAN CORPUSCULAR HEMOGLOBIN / MEAN CORPUSCULAR HEMOGLOBIN CONCENTRATION / MEAN CORPUSCULAR VOLUME / MONOCYTE / NEUTROPHIL / NUCLEATED RED BLOOD CELLS / PLATELET COUNT: tissue Blood; for ALANINE AMINOTRANSFERASE / ALBUMIN / ALKALINE PHOSPHATASE / ASPARTATE AMINOTRANSFERASE / BLOOD UREA NITROGEN / CARBON DIOXIDE / CHLORIDE / CHOLESTEROL / CREATINE PHOSPHOKINASE / CREATININE / GLUCOSE / LACTATE DEHYDROGENASE / LIPASE / PHOSPHORUS / POTASSIUM / SODIUM / TOTAL BILIRUBIN / TOTAL PROTEIN / URIC ACID: tissue Plasma
[1] = 0 mg/kg, 72 h, dose level Control, time 3 day
[2] = 0 mg/kg, 120 h, dose level Control, time 5 day
[3] = 120 mg/kg, 72 h, dose level Low, time 3 day

CCN(CC)CCNC(=O)c1cc(S(C)(=O)=O)ccc1OC [TIAPRIDE]
ABSOLUTE BASOPHIL [1]: 0 CELLS/uL
ABSOLUTE EOSINOPHIL [1]: 151.33 CELLS/uL
ABSOLUTE LYMPHOCYTE [1]: 10599.5 CELLS/uL
ABSOLUTE MONOCYTE [1]: 109.5 CELLS/uL
ABSOLUTE SEGMENTED NEUTROPHIL [1]: 1139.67 CELLS/uL
BASOPHIL [1]: 0%
EOSINOPHIL [1]: 0.83%
ERYTHROCYTE COUNT [1]: 5.54 x10E6/uL
HEMATOCRIT [1]: 35.35%
HEMOGLOBIN [1]: 13.22 G/DL
LEUKOCYTE COUNT [1]: 12 x10E3/uL
LYMPHOCYTE [1]: 89%
MEAN CORPUSCULAR HEMOGLOBIN [1]: 23.88 pg
MEAN CORPUSCULAR HEMOGLOBIN CONCENTRATION [1]: 37.4 G/DL
MEAN CORPUSCULAR VOLUME [1]: 63.85 fL
MONOCYTE [1]: 1%
NEUTROPHIL [1]: 9.17%
NUCLEATED RED BLOOD CELLS [1]: 0 /100WBC
PLATELET COUNT [1]: 1333.33 x10E3/uL
ALANINE AMINOTRANSFERASE [1]: 53.17 u/L
ALBUMIN [1]: 4.32 G/DL
ALKALINE PHOSPHATASE [1]: 404.33 u/L
ASPARTATE AMINOTRANSFERASE [1]: 83.17 u/L
BLOOD UREA NITROGEN [1]: 15.67 mg/dL
CARBON DIOXIDE [1]: 27.33 mmol/L
CHLORIDE [1]: 101.83 MEQ/L
CHOLESTEROL [1]: 68.67 mg/dL
CREATINE PHOSPHOKINASE [1]: 276.17 u/L
CREATININE [1]: 0.18 mg/dL
GLUCOSE [1]: 163.5 mg/dL
LACTATE DEHYDROGENASE [1]: 144.67 u/L
LIPASE [1]: 8.83 u/L
PHOSPHORUS [1]: 11.72 mg/dL
POTASSIUM [1]: 5.99 MEQ/L
SODIUM [1]: 143.57 MEQ/L
TOTAL BILIRUBIN [1]: 0.2 mg/dL
TOTAL PROTEIN [1]: 6.1 G/DL
URIC ACID [1]: 1.38 mg/dL
ABSOLUTE BASOPHIL [2]: 0 CELLS/uL
ABSOLUTE EOSINOPHIL [2]: 248.67 CELLS/uL
ABSOLUTE LYMPHOCYTE [2]: 12977.83 CELLS/uL
ABSOLUTE MONOCYTE [2]: 19.67 CELLS/uL
ABSOLUTE SEGMENTED NEUTROPHIL [2]: 1137.17 CELLS/uL
BASOPHIL [2]: 0%
EOSINOPHIL [2]: 1.67%
ERYTHROCYTE COUNT [2]: 5.82 x10E6/uL
HEMATOCRIT [2]: 36.35%
HEMOGLOBIN [2]: 13.58 G/DL
LEUKOCYTE COUNT [2]: 14.38 x10E3/uL
LYMPHOCYTE [2]: 90.5%
MEAN CORPUSCULAR HEMOGLOBIN [2]: 23.32 pg
MEAN CORPUSCULAR HEMOGLOBIN CONCENTRATION [2]: 37.42 G/DL
MEAN CORPUSCULAR VOLUME [2]: 62.42 fL
MONOCYTE [2]: 0.17%
NEUTROPHIL [2]: 7.67%
NUCLEATED RED BLOOD CELLS [2]: 0 /100WBC
PLATELET COUNT [2]: 1337.67 x10E3/uL
ALANINE AMINOTRANSFERASE [2]: 48.5 u/L
ALBUMIN [2]: 4.32 G/DL
ALKALINE PHOSPHATASE [2]: 354.33 u/L
ASPARTATE AMINOTRANSFERASE [2]: 80 u/L
BLOOD UREA NITROGEN [2]: 16 mg/dL
CARBON DIOXIDE [2]: 27.33 mmol/L
CHLORIDE [2]: 100.33 MEQ/L
CHOLESTEROL [2]: 68 mg/dL
CREATINE PHOSPHOKINASE [2]: 325.17 u/L
CREATININE [2]: 0.23 mg/dL
GLUCOSE [2]: 172 mg/dL
LACTATE DEHYDROGENASE [2]: 254.83 u/L
LIPASE [2]: 8.33 u/L
PHOSPHORUS [2]: 12.17 mg/dL
POTASSIUM [2]: 6.28 MEQ/L
SODIUM [2]: 143.57 MEQ/L
TOTAL BILIRUBIN [2]: 0.18 mg/dL
TOTAL PROTEIN [2]: 6.12 G/DL
URIC ACID [2]: 1.78 mg/dL
ABSOLUTE BASOPHIL [3]: 0 CELLS/uL
ABSOLUTE EOSINOPHIL [3]: 161.33 CELLS/uL
ABSOLUTE LYMPHOCYTE [3]: 8742.33 CELLS/uL
ABSOLUTE MONOCYTE [3]: 34.33 CELLS/uL
ABSOLUTE SEGMENTED NEUTROPHIL [3]: 962 CELLS/uL
BASOPHIL [3]: 0%
EOSINOPHIL [3]: 1.33%
ERYTHROCYTE COUNT [3]: 5.57 x10E6/uL
HEMATOCRIT [3]: 35.07%
HEMOGLOBIN [3]: 13.23 G/DL
LEUKOCYTE COUNT [3]: 9.9 x10E3/uL
LYMPHOCYTE [3]: 88.33%
MEAN CORPUSCULAR HEMOGLOBIN [3]: 23.77 pg
MEAN CORPUSCULAR HEMOGLOBIN CONCENTRATION [3]: 37.7 G/DL
MEAN CORPUSCULAR VOLUME [3]: 63.03 fL
MONOCYTE [3]: 0.33%
NEUTROPHIL [3]: 10%
NUCLEATED RED BLOOD CELLS [3]: 0 /100WBC
PLATELET COUNT [3]: 1263 x10E3/uL
ALANINE AMINOTRANSFERASE [3]: 47.67 u/L
ALBUMIN [3]: 4.13 G/DL
ALKALINE PHOSPHATASE [3]: 345 u/L
ASPARTATE AMINOTRANSFERASE [3]: 82.33 u/L
BLOOD UREA NITROGEN [3]: 15.33 mg/dL
CARBON DIOXIDE [3]: 27.33 mmol/L
CHLORIDE [3]: 103 MEQ/L
CHOLESTEROL [3]: 60.67 mg/dL
CREATINE PHOSPHOKINASE [3]: 172.67 u/L
CREATININE [3]: 0.19 mg/dL
GLUCOSE [3]: 170.33 mg/dL
LACTATE DEHYDROGENASE [3]: 114 u/L
LIPASE [3]: 8 u/L
PHOSPHORUS [3]: 12.83 mg/dL
POTASSIUM [3]: 5.99 MEQ/L
SODIUM [3]: 145.83 MEQ/L
TOTAL BILIRUBIN [3]: 0.2 mg/dL
TOTAL PROTEIN [3]: 6.17 G/DL
URIC ACID [3]: 1.33 mg/dL
